Laboratory results as given in publication PMC11233931, “Remodeling tumor‐associated macrophage for anti‐cancer effects by rational design of irreversible inhibition of mitogen‐activated protein kinase‐activated protein kinase 2” (MedComm, 2024).

Assays:
Assay in all cases: Eurofins kinase selectivity profile against 380 other human recombinant kinases (Table S2)
Format in all cases: biochemical
[1] = molecular target: T1, 380 human recombinant protein kinases (Homo sapiens, UniProt Q8IVW4); conditions: CDKL3(h), read-out: Inhibition rate
T1 construct: purchased Eurofins (Celle Lévescault)
T1 sequence (Q8IVW4 whole entry): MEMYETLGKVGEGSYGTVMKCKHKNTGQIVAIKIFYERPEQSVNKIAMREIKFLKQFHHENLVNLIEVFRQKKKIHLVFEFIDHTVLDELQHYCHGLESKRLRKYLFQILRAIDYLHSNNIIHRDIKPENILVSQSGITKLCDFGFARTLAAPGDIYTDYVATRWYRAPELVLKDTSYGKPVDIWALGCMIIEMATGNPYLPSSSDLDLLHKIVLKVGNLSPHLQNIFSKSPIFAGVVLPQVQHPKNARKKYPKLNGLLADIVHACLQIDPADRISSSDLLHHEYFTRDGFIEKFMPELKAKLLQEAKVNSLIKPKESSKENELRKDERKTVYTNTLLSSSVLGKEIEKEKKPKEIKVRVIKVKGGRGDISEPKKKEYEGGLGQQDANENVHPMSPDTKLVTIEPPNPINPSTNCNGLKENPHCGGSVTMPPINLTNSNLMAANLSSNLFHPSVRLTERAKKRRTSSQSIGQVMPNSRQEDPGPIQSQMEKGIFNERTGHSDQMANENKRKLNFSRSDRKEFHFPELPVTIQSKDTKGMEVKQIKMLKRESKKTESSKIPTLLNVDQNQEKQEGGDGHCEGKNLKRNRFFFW
Summary of the method: (§1)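 To gauge specificity for MK2, the compound is profiled externally at various concentrations on recombinant human kinases, 380 in total.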

[2] = molecular target: T2, 380 human recombinant protein kinases (Homo sapiens, UniProt Q9P2K8); conditions: GCN2(h), read-out: Inhibition rate
T2 construct: purchased Eurofins (Celle Lévescault)
Summary of the method: as §1

[3] = molecular target: T3, 380 human recombinant protein kinases (Homo sapiens, UniProt Q16566); conditions: CaMKIV(h), read-out: Inhibition rate
T3 construct: purchased Eurofins (Celle Lévescault)
T3 sequence (Q16566 1-473): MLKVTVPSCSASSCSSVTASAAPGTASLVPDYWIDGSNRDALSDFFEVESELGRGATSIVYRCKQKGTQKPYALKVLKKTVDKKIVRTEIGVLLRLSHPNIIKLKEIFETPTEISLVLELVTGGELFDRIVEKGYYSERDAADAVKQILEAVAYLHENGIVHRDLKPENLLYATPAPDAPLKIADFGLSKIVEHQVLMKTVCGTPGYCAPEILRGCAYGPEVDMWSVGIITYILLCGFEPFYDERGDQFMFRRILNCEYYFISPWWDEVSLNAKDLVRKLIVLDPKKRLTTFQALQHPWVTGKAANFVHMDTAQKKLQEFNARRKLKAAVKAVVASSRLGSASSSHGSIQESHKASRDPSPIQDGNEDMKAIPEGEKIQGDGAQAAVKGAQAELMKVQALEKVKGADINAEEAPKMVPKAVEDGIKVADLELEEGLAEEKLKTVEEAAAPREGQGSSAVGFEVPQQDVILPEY
Summary of the method: as §1

[4] = molecular target: T4, 380 human recombinant protein kinases (Homo sapiens, UniProt Q86Z02); conditions: HIPK1(h), read-out: Inhibition rate
T4 construct: purchased Eurofins (Celle Lévescault)
Summary of the method: as §1

[5] = molecular target: T5, 380 human recombinant protein kinases (Homo sapiens, UniProt Q13131); conditions: AMPKα1(h), read-out: Inhibition rate
T5 construct: purchased Eurofins (Celle Lévescault)
T5 sequence (Q13131 whole entry): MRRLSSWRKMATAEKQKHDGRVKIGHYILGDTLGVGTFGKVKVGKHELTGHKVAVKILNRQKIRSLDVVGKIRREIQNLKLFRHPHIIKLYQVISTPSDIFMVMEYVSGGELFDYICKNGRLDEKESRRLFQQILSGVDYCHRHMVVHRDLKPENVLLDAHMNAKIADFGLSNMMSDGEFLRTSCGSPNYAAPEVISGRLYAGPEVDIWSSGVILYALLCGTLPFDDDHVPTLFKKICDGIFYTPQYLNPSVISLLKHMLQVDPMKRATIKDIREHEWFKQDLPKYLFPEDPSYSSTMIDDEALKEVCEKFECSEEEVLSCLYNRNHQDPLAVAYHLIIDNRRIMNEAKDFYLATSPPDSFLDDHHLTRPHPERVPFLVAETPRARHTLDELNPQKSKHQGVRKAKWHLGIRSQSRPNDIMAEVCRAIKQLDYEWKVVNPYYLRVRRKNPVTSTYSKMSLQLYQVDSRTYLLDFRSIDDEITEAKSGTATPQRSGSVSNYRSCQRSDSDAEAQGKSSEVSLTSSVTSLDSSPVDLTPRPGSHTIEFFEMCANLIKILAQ
Summary of the method: as §1

[6] = molecular target: T6, 380 human recombinant protein kinases (Homo sapiens, UniProt P24723); conditions: PKCη(h), read-out: Inhibition rate
T6 construct: purchased Eurofins (Celle Lévescault)
T6 sequence (P24723 whole entry): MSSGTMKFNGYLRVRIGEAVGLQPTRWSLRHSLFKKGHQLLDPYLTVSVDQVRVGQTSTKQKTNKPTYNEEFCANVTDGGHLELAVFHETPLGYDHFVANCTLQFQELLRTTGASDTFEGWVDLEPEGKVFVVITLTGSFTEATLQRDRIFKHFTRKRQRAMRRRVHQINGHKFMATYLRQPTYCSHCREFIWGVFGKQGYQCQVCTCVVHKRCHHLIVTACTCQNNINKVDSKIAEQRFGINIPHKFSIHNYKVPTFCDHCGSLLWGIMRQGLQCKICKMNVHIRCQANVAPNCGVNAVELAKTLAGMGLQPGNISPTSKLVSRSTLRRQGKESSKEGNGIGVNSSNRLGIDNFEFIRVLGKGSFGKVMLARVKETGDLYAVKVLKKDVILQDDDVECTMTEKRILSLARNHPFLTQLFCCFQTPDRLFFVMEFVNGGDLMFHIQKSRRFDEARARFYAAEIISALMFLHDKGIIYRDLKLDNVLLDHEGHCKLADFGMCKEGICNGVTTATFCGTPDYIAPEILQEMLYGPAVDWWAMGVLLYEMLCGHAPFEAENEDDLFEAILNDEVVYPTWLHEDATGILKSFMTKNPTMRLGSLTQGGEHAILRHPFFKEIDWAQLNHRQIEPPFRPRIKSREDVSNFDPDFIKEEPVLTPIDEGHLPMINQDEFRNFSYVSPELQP
Summary of the method: as §1

[7] = molecular target: T7, 380 human recombinant protein kinases (Homo sapiens, UniProt O43353); conditions: RIPK2(h), read-out: Inhibition rate
T7 construct: purchased Eurofins (Celle Lévescault)
T7 sequence (O43353 whole entry): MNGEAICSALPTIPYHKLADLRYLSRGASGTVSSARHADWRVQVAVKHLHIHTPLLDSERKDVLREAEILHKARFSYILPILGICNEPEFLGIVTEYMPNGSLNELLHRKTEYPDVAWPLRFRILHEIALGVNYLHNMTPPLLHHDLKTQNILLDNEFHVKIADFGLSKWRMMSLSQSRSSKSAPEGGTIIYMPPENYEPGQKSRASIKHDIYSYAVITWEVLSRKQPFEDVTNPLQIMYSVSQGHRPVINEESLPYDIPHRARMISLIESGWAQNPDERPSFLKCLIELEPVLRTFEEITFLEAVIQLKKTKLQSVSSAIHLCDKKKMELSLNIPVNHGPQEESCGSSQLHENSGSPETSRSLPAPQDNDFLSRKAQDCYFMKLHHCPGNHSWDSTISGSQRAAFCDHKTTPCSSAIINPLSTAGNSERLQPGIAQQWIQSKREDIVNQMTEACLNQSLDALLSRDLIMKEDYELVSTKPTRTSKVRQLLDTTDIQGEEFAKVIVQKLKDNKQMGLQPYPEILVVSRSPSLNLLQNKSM
Summary of the method: as §1

[8] = molecular target: T8, 380 human recombinant protein kinases (Homo sapiens, UniProt P00519, M351T); conditions: Abl (M351T)(h), read-out: Inhibition rate
T8 construct: purchased Eurofins (Celle Lévescault)
Summary of the method: as §1

[9] = molecular target: T9, 380 human recombinant protein kinases (Homo sapiens, UniProt O00506); conditions: STK25(h), read-out: Inhibition rate (%)
T9 construct: purchased Eurofins (Celle Lévescault)
T9 sequence (O00506 whole entry): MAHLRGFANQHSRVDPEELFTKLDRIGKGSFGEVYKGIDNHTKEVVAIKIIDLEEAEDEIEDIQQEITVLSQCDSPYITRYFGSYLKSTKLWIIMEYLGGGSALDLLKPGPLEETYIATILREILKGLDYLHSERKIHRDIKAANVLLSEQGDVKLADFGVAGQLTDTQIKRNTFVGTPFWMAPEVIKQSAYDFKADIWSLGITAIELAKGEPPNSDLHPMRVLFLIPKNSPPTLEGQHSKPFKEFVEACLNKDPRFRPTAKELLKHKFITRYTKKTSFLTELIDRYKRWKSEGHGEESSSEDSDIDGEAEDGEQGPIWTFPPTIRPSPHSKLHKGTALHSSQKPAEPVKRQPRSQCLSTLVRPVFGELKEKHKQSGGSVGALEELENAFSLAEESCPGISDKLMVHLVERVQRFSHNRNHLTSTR
Summary of the method: as §1

[10] = molecular target: T10, 380 human recombinant protein kinases (Homo sapiens, UniProt Q9BXA7); conditions: TSSK1(h), read-out: Inhibition rate (%)
T10 construct: purchased Eurofins (Celle Lévescault)
T10 sequence (Q9BXA7 1-367): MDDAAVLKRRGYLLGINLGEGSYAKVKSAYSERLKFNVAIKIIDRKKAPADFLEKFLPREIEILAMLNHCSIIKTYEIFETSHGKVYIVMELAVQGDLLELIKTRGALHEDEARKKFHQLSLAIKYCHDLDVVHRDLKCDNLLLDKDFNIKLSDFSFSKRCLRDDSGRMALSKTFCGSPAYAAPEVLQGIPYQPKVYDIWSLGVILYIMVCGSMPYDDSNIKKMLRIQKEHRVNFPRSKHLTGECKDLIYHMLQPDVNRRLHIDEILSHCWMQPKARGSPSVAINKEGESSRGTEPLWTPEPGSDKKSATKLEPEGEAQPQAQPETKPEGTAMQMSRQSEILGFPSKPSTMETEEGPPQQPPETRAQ
Summary of the method: as §1

[11] = molecular target: T11, 380 human recombinant protein kinases (Homo sapiens, UniProt P48426); conditions: PIP4K2α(h), read-out: Inhibition rate (%)
T11 construct: purchased Eurofins (Celle Lévescault)
T11 sequence (P48426 1-406): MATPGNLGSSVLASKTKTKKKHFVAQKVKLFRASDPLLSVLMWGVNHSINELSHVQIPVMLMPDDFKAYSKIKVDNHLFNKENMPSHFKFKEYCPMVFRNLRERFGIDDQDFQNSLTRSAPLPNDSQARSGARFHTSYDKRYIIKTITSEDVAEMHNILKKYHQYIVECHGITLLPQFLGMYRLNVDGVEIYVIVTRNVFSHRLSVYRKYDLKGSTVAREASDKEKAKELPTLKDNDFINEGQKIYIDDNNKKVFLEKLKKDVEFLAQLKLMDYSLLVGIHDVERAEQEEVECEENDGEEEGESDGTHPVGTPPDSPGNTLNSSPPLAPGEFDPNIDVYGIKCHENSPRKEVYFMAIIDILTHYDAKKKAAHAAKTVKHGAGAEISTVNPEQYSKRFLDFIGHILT
Summary of the method: as §1

[12] = molecular target: T12, 380 human recombinant protein kinases (Homo sapiens, UniProt P53355); conditions: DAPK1(h), read-out: Inhibition rate
T12 construct: purchased Eurofins (Celle Lévescault)
T12 sequence (P53355 whole entry): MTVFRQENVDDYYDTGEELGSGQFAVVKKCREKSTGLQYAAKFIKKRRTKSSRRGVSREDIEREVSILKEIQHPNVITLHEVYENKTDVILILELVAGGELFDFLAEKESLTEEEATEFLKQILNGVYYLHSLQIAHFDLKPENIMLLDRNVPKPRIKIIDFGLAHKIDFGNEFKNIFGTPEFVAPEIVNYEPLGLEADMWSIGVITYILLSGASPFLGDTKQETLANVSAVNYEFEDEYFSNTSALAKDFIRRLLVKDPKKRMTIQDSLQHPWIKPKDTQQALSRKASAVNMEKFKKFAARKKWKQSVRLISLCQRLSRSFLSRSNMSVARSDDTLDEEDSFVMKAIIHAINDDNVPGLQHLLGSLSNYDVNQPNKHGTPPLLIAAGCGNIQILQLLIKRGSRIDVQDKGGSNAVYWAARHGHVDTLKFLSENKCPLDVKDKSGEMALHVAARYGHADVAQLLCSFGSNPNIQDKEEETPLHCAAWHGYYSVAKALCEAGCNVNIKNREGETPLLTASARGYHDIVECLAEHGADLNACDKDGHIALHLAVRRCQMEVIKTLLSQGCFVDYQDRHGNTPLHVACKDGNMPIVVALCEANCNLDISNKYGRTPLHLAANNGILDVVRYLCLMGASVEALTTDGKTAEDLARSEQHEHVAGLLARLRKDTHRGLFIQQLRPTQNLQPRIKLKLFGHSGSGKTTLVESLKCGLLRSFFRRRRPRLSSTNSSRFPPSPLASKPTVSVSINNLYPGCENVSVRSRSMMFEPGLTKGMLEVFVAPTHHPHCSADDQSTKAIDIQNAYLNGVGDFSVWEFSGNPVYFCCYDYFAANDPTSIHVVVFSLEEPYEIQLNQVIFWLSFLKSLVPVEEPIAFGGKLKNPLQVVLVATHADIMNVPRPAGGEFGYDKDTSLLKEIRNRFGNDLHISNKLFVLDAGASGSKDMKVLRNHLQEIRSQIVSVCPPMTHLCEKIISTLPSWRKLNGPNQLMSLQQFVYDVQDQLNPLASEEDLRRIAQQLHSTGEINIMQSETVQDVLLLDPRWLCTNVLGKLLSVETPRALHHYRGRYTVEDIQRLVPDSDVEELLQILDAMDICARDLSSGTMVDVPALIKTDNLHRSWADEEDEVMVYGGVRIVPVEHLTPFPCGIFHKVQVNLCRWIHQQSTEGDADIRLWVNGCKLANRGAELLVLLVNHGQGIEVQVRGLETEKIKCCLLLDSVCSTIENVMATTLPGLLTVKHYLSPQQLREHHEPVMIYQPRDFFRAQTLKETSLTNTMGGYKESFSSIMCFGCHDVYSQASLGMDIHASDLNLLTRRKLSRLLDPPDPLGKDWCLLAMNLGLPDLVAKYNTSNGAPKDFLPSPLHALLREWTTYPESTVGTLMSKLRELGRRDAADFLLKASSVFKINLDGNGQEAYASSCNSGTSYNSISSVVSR
Summary of the method: as §1

`C=CC(=O)Nc1cc(-c2cc(-c3cc4c([nH]3)CCNC4=O)ccn2)ccc1OC(F)(F)F` [compound 11] was tested, and the inhibition at 0.01 µM ([1]; 10 nM) was 52%, the inhibition at 0.1 µM ([1]; 100 nM) was 88% and the inhibition at 1 µM ([1]; 1000 nM) was 99%. It also gave an inhibition at 0.01 µM ([2]; 10 nM) of 7%, an inhibition at 0.1 µM ([2]; 100 nM) of 9% and an inhibition at 1 µM ([2]; 1000 nM) of 5%. The inhibition at 0.01 µM ([3]; 10 nM) was 9%, the inhibition at 0.1 µM ([3]; 100 nM) was 8% and the inhibition at 1 µM ([3]; 1000 nM) was 6%. For the same molecule, the inhibition at 0.01 µM ([4]; 10 nM) was -21%, the inhibition at 0.1 µM ([4]; 100 nM) was -9% and the inhibition at 1 µM ([4]; 1000 nM) was -3%. It also gave an inhibition at 0.01 µM ([5]; 10 nM) of 6%, an inhibition at 0.1 µM ([5]; 100 nM) of 20% and an inhibition at 1 µM ([5]; 1000 nM) of 65%. The inhibition at 0.01 µM ([6]; 10 nM) was 1%, the inhibition at 0.1 µM ([6]; 100 nM) was 10% and the inhibition at 1 µM ([6]; 1000 nM) was 9%. It also gave an inhibition at 0.01 µM ([7]; 10 nM) of 11%, an inhibition at 0.1 µM ([7]; 100 nM) of 46% and an inhibition at 1 µM ([7]; 1000 nM) of 88%. For the same molecule, the inhibition at 0.01 µM ([8]; 10 nM) was 9%, the inhibition at 0.1 µM ([8]; 100 nM) was 2% and the inhibition at 1 µM ([8]; 1000 nM) was 22%. It also gave an inhibition at 0.01 µM ([9]; 10 nM) of -4%, an inhibition at 0.1 µM ([9]; 100 nM) of 1% and an inhibition at 1 µM ([9]; 1000 nM) of 0%. For the same molecule, the inhibition at 0.01 µM ([10]; 10 nM) was 1%, the inhibition at 0.1 µM ([10]; 100 nM) was 2% and the inhibition at 1 µM ([10]; 1000 nM) was 7%. For the same molecule, the inhibition at 0.01 µM ([11]; 10 nM) was -1%, the inhibition at 0.1 µM ([11]; 100 nM) was -3% and the inhibition at 1 µM ([11]; 1000 nM) was -1%. For the same molecule, the inhibition at 0.01 µM ([12]; 10 nM) was 2%, the inhibition at 0.1 µM ([12]; 100 nM) was 5% and the inhibition at 1 µM ([12]; 1000 nM) was 12%.
